The values below are quoted from earlier work in patent US20110059171A1 (LABORATORIOS SENOSIAIN S.A. DE C.V., priority 2008, published 2011).

For data set [1] the following is noted: in vivo.

On to `O=C(c1ccccc1)c1ccc2n1CCC2C(=O)O` (racemic) [Ketorolac tromethamine, (+−)-5(benzoyl)-2,3-dihydro-1H-pyrrolizine-1-carboxylic acid tris (hydroxymethyl)methylamine], for which the water solubility entry was “highly water-soluble”.

With `O=C(c1ccccc1)c1ccc2n1CCC2C(=O)O` (stereo not drawn) [Ketorolac], in data set [1], the “excreted without any change in urine” value is on record as “about 90%”. The bound to proteins result in the data set on proteins is reported as “More than 99%”.
